Where two headings read alike, the source gives them in different places.
Legend:
[1] = target: T1, serotonin 5-HT2C receptor (Homo sapiens, UniProt P28335); assay: facilitation of morphine-induced MOP-YFP endocytosis in HEK293 cells co-expressing 5-HT2C, at […]; format: cell-based
T1 construct: gene HTR2C; c-myc-5-HT2C-Cerulean

[2] = target: T1, serotonin 5-HT2C receptor; assay: as above; format: cell-based; remark: listed apart in the source

T1 sequence (P28335 33-458): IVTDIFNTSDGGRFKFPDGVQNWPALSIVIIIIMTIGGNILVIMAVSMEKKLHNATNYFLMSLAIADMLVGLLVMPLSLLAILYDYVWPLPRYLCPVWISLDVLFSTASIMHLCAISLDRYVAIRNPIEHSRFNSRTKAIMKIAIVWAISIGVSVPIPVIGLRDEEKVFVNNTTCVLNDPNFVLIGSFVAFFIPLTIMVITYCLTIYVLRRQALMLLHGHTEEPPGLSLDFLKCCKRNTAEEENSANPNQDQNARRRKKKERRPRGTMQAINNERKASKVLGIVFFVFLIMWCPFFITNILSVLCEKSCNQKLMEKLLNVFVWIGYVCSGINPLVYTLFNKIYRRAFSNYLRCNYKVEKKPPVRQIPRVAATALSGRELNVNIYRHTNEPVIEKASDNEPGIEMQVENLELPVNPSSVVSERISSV
T1 sequence (P35372 whole entry partner): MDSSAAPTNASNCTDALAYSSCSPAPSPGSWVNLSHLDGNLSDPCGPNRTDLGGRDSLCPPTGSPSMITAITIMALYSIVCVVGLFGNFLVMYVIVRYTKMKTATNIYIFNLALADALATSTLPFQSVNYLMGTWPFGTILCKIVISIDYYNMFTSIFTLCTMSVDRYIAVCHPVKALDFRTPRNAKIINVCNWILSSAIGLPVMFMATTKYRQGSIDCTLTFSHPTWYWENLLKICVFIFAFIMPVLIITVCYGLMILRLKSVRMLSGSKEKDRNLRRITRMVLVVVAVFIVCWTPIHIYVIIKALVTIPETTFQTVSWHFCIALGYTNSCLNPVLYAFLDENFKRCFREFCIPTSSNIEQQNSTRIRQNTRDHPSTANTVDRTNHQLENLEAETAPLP

| SMILES | Emax (no. vesicles/cell) [1] | Emax (no. vesicles/cell) [2] |
| --- | --- | --- |
| COc1cc(CC(C)N)c(OC)cc1I (racemic) [DOI] | 8.18 ± 1.31 vesicles/cell (Emax, with morphine) |  |
| O=C1Nc2cc(Cl)c(Cl)cc2N2CCNCC12 (centres unmarked) [WAY161503] |  | 9.08 ± 1.88 vesicles/cell (Emax, with morphine) |

— publication PMC4388511 (PLoS ONE, 2015)
